The source of these data is patent publication US8334403B1, “C-lysine conjugates as pH-controlled, light-activated reagents for double stranded DNA cleavage and associated methods” (Florida State University Research Foundation, Inc., priority 2005, dated 2012).

Where only a bound is given, the exact number is not on record here.

A short description of series [1]: Fluorometric (emission) determination of pKa. The series is classed as physicochemical. The following applies: emission; α-amino group (4, 6), ε-amino group (7). The protocol:
(§1) General information. ^1H, ^13C and ^19F NMR were collected on a Varian Gemini 300 MHz NMR spectrometer and a Bruker 300 MHz NMR spectrometer. Mass spectrometry data was collected on a Jeol JMS-600H. UV spectra were recorded on a Shimadzu UV-2100. Fluorescence spectra were obtained with SPEX FluoMax spectrofluorimeter using right-angle geometry. pH was adjusted with AB 15 plus pH meter (Accument) after standardization at 25° C. All buffers were prepared and pH-adjusted at room temperature (25° C.). Plasmid DNA Photocleavage. pBR322 plasmid DNA (4,361 b/p; from BioLabs Inc., 1 μg/μL solution in 10 mM Tris-HCl (pH 8.0), and 1 mM EDTA buffer) was diluted to a concentration of 0.01 μg/μL. The solution containing cleavage agent, DNA (30 μM/bp) in 20 mM sodium phosphate buffer was incubated for 1 hour at 30° C. Samples were placed on ice at a distance of 20 cm from 200 W Hg—Xe lamp (Spectra-Physics, Laser & Photonics Oriel Instruments with long pass filter with 324 nm cut-off wavelength). Electrophoretic Analysis. The gel electrophoresis was carried out in 1×TBE buffer at 80 V using Miligel FisherBiotech Horizontal Electrophoresis System. All gels were run on 1% agarose slab gels. Before loading, the DNA samples were mixed with 0.33 volume of tracking dye containing bromophenol blue (0.25%) and glycerol (30%) in water. After staining in ethidium bromide solution (2 μg/ml) for 1 hour, the gel was washed with water and pictures were taken with Polaroid 3000ISO type 667 film. The relative quantities of the supercoiled, nicked, and linear DNA were calculated by integrating the “area” of each spot by the image analyzer software Total/Lab (Nonlinear Dynamics Ltd., UK). The amount of supercoiled DNA was multiplied by factor of 1.4 to account for reduced ethidium bromide intercalation into supercoiled DNA. pH titration by ^1H-NMR. pH* of compound 8 (3 mM) solution in D2O containing 0.05 wt % 3-(trimethylsilyl)propionic-2,2,3,3-d4 acid, sodium salt (TSP-d4) was adjusted with 10 wt % DCI and NaOD in D2O at 25° C. under argon purged condition. Spectrometric determinations of pKa. pH of 10 μM of compound solution in H2O was adjusted with 10, 100 mM HCl (aq) and NaOH (aq) solution under argon purged condition. Excitation wavelength was 330 nm and polymethacrylate fluorimeter cuvettes were used. Absorbance and fluorescence titration with DNA. The concentrations of calf thymus DNA stock solution was determined spectophotometrically using the following molar absorptovity values: 1.32×10^4 M^−1 cm^−1 (per base pair) at 260 nm. All experiments were done in 20 mM sodium phosphate buffer at 25° C. and polymethacrylate fluorimeter cuvettes were used. The same amount of DNA was added to both sample and reference cuvettes during UV/Vis titration. Determination of excited state lifetimes. The concentration of compound solution was 10 μM in 20 mM sodium phosphate buffer. The photoluminescence lifetime measurements were conducted by exciting the samples with the output of a Nd:VO—4 (Spectra-Physics Vanguard, 2 W, 532 nm, 76 MHz, 10 ps) pumped R6G dye laser (Coherent 702-1). The output of the dye laser (600 nm, Rhodamine 6G) was cavity dumped at 1.9 MHz and frequency doubled using a BBO crystal to excite the fluorophore (the excitation wavelength used was 290 nm). Samples were excited with <1 mW power and the emission was collected at right angles onto a Chromex S3 500 is 0.5 m imaging monochromator with a 50 g/mm grating and 0.5 nm resolution. […]

Series [2] deals with pBR322 plasmid DNA. The series is described as follows: Plasmid relaxation assay: DNA photocleavage of supercoiled plasmid under UV irradiation. Type of series: biochemical. The following applies: pH 6, 15 μM, 10 min of UV irradiation. The protocol:
General information. ^1H, ^13C and ^19F NMR were collected on a Varian Gemini 300 MHz NMR spectrometer and a Bruker 300 MHz NMR spectrometer. Mass spectrometry data was collected on a Jeol JMS-600H. UV spectra were recorded on a Shimadzu UV-2100. Fluorescence spectra were obtained with SPEX FluoMax spectrofluorimeter using right-angle geometry. pH was adjusted with AB 15 plus pH meter (Accument) after standardization at 25° C. All buffers were prepared and pH-adjusted at room temperature (25° C.). Plasmid DNA Photocleavage. pBR322 plasmid DNA (4,361 b/p; from BioLabs Inc., 1 μg/μL solution in 10 mM Tris-HCl (pH 8.0), and 1 mM EDTA buffer) was diluted to a concentration of 0.01 μg/μL. The solution containing cleavage agent, DNA (30 μM/bp) in 20 mM sodium phosphate buffer was incubated for 1 hour at 30° C. Samples were placed on ice at a distance of 20 cm from 200 W Hg—Xe lamp (Spectra-Physics, Laser & Photonics Oriel Instruments with long pass filter with 324 nm cut-off wavelength). Electrophoretic Analysis. The gel electrophoresis was carried out in 1×TBE buffer at 80 V using Miligel FisherBiotech Horizontal Electrophoresis System. All gels were run on 1% agarose slab gels. Before loading, the DNA samples were mixed with 0.33 volume of tracking dye containing bromophenol blue (0.25%) and glycerol (30%) in water. After staining in ethidium bromide solution (2 μg/ml) for 1 hour, the gel was washed with water and pictures were taken with Polaroid 3000ISO type 667 film. The relative quantities of the supercoiled, nicked, and linear DNA were calculated by integrating the “area” of each spot by the image analyzer software Total/Lab (Nonlinear Dynamics Ltd., UK). The amount of supercoiled DNA was multiplied by factor of 1.4 to account for reduced ethidium bromide intercalation into supercoiled DNA. pH titration by ^1H-NMR. pH* of compound 8 (3 mM) solution in D2O containing 0.05 wt % 3-(trimethylsilyl)propionic-2,2,3,3-d4 acid, sodium salt (TSP-d4) was adjusted with 10 wt % DCI and NaOD in D2O at 25° C. under argon purged condition. Spectrometric determinations of pKa. pH of 10 μM of compound solution in H2O was adjusted with 10, 100 mM HCl (aq) and NaOH (aq) solution under argon purged condition. Excitation wavelength was 330 nm and polymethacrylate fluorimeter cuvettes were used. Absorbance and fluorescence titration with DNA. The concentrations of calf thymus DNA stock solution was determined spectophotometrically using the following molar absorptovity values: 1.32×10^4 M^−1 cm^−1 (per base pair) at 260 nm. All experiments were done in 20 mM sodium phosphate buffer at 25° C. and polymethacrylate fluorimeter cuvettes were used. The same amount of DNA was added to both sample and reference cuvettes during UV/Vis titration. Determination of excited state lifetimes. The concentration of compound solution was 10 μM in 20 mM sodium phosphate buffer. The photoluminescence lifetime measurements were conducted by exciting the samples with the output of a Nd:VO—4 (Spectra-Physics Vanguard, 2 W, 532 nm, 76 MHz, 10 ps) pumped R6G dye laser (Coherent 702-1). The output of the dye laser (600 nm, Rhodamine 6G) was cavity dumped at 1.9 MHz and frequency doubled using a BBO crystal to excite the fluorophore (the excitation wavelength used was 290 nm). Samples were excited with <1 mW power and the emission was collected at right angles onto a Chromex S3 500 is 0.5 m imaging monochromator with a 50 g/mm grating and 0.5 nm resolution. Output of the monochromator is focused into a Hamamatsu C5680 streak camera operating at a 20 ns window for the fluorophore. Intensity analysis was carried out by integrating the spectral profile in time on the streak camera. Lifetime analysis over 6-7 lifetimes of the fluorophore was conducted by binning the photoluminescence intensity collected on the streak camera over a 20 nm spectral window at the centroid value of the emission of the fluorophore. Ethidium bromide displacement. […]

A short description of series [3]: UV-absorption titration determination of pKa. The series is classed as physicochemical. On the procedure:
as §1

`Cl.NCCCCCC(=O)Nc1ccc(C#Cc2c(F)c(F)nc(F)c2F)cc1` [Compound 7, 6-Aminohexanoic acid [4-(2,3,5,6-tetrafluoro-pyridin-4-ylethynyl)-phenyl]-amide Hydrochloride]: the pKa1 in series [1] is 10.8; in series [3] (absorption, α-amino group (4, 6), ε-amino group (7)), 9.4. In addition, the ds-cleavage entry in series [2] is recorded as “do not produce any ds-cleavage”. For the same compound, the “pKa for the ε-ammonium group lower by absorption than derived from the fluorescence changes” value in series [3] (absorption vs fluorescence) is more than 1 pKa units.
